Measurements from patent US20210017607A1, “Methods of Predicting Responsiveness to Cancer Therapies” (The University of Chicago, priority 2019, published 2021).

Legend:
Type in all cases: cell-based, mouse
[1] = test system: prostate-specific PTEN^−/−p53^−/− GEMM tumors; test: Ex vivo GEMM tumor suspensions, IFNβ1 ELISA; details: DMXAA 50 μg/mL, 36 hours
Procedure: FIG. 39. […] Tumors from prostate-specific PTEN^−/−p53^−/− GEMM tumors were processed into single cell suspensions and treated with indicated drugs (DMXAA at 50 μg/mL, Buparlisib at 1000 nM, Rucaparib at 500 nM). At 36 hours supernatants were collected for ELISA based detection of IFNβ1; n=1 independent experiment.
Ex vivo Assays. Subcutaneous tumors were isolated by gentle mechanical dissociation in the presence of 1×RPMI (supplemented with 10% fetal bovine serum, 1% penicillin-streptomycin and 2% L-glutamine). 1×ACK was used for RBC lysis. Single cell suspensions were washed twice with media, by centrifuging at 500×g for 5 min at 4° C. and quantified using 0.1% […] solution. Cells were seeded at a concentration 0.2-0.5 million cells/mL and treated with indicated drugs singly or in combination for 36 hours. DMXAA (positive control) was used at indicated concentration. Supernatants from treated BMDMs were collected at the end of 36 hours and processed as per ELISA protocol for detection of cytokines/chemokines.

PI3K = test: In vitro target inhibition by western blotting (PI3K/AKT)
[2] = test system: Myc-CAP-PTEN-deficient cancer cells; test: Exosome dsDNA content by Nanodrop; details: rucaparib 36 hours
Procedure: FIGS. 40A and 40B. […] Isogenic PTEN-proficient and CRISPR-CAS9-mediated PTEN-knockout Myc-CAP cells were treated with rucaparib for 36 hours. Exosomes were collected by ultracentrifugation and used for quantification of particle number by Nanosight (40A) and dsDNA content by Nanodrop® (40B). n=2 experiments.
FIGS. 41A and 41B. […] Exosomes were collected by ultracentrifugation and used for quantification of particle number by Nanosight (41A) and dsDNA content by Nanodrop® (41B). n=2 experiments.
Microvesicle Isolation (MVs)/DNA extraction. Cells were treated for 36 hours with the indicated drugs, and supernatants were harvested and then centrifuged at 300×g for 5 minutes at 4° C. to pellet cells, This was followed by additional centrifugation steps at 2,000×g for 10 min at 4° C. to eliminate dead cell debris and at 10,000×g for 30 min in at 4° C. to remove larger vesicles. The supernatant was then collected and subjected to 100,000×g centrifugation in a Type 60 Ti rotor (38000 rpm) for 70 min at 4 ° C. […] The final EV pellet was collected in 1×PBS and used for quantification. […] Equal numbers of EVs were collected from each treatment group and DNA was extracted using Trizol® LS as per protocol (Thermo Fischer Scientific®) and then quantified using Nanodrop®.

B6-Myc (STING^hi) cells = test: p-γH2AX foci (DNA DSBs) by confocal microscopy; details: 36 hours; rucaparib 500 nM, buparlisib 1 μM
Procedure: FIGS. 17A-17C. PARPi/PI3Ki combination induces intracellular DNA DSBs, and proportionate release of MV surface-associated DNA DSBs from B6-Myc (STING^hi) cancer cells, without affecting cellular viability. B6-Myc (STING^hi) cells were treated with indicated drugs singly or in combination for 36 hours. (17A) Cells were stained with anti-mouse specific p-γH2AX antibody and fluorescently labeled secondary antibody for determination of DNA DSBs, which were quantified by confocal microscopy. (17B) Protein extracts from cells in (17A) were analyzed for the indicated pharmacodynamic biomarkers by western blotting. […] Significance/p-values were calculated by one-way ANOVA.
Confocal Microscopy. […] Staining for DNA DSBs was done with anti-mouse primary antibody specific for phospho-γH2AX (1:500 dilution, Cell Signaling Technology and secondary anti-rabbit IgG antibody conjugated to AF647 (1:1000-1:2000 dilution in 1×PBS, Thermo Fisher Scientific®). Anti-mouse specific β-actin conjugated to Phycoerythrin (PE, Thermo Fisher Scientific®) was used to stain the cytoskeleton. All staining procedures were done at 4° C. for 30 minutes. Cells were then washed 3 times with 1×PBS and imaged immediately. All images were collected using an Olympus Fluoview® 1000 using a 100× oil objective. Acquired images were analyzed by ImageJ software, developed at NIH.

Cc1ccc2c(=O)c3cccc(CC(=O)O)c3oc2c1C [DMXAA, 5,6-Dimethylxanthenone-4-acetic Acid]
STING activation (IFNβ1 ELISA) [1]: induces STING activation

Nc1cc(C(F)(F)F)c(-c2cc(N3CCOCC3)nc(N3CCOCC3)n2)cn1 [buparlisib]
concentration that achieved complete target inhibition in vitro (PI3K; B6-Myc cells (FIG. 17B)): 1 µM
target inhibitory concentration (PI3K; BMDMs (FIG. 30A)): 1
activation of the PI3K/AKT pathway within BMDMs (PI3K; BMDMs co-cultured with R-MVs, 24 hours): inhibits activation of the PI3K/AKT pathway
complete target inhibition concentration (PI3K; Myc-CAP cells (FIG. 29B)): 1 µM

CNCc1ccc(-c2[nH]c3cc(F)cc4c3c2CCNC4=O)cc1 [rucaparib]
exosomal dsDNA content relative to PTEN-proficient counterparts ([2]; CRISPR-CAS9 PTEN-knockout): significantly reduced dsDNA content
exosomal dsDNA content relative to PTEN-proficient counterparts ([2]; siRNA PTEN-knockdown): significantly reduced dsDNA content
DNA double-strand breaks (p-γH2AX foci) (B6-Myc (STING^hi) cells): did not show a statistically significant increase
